Experimental data as given in ChEMBL document CHEMBL6182935, “Discovery of a Novel Silybin Derivative for the Treatment of Metabolic Dysfunction-Associated Steatohepatitis” (J Med Chem, 2025).
Calls of active or inactive are those of the source. The calls are words filed in the database; no cut-off is given here.

Columns and labels:
[1] = Solubility in […] incubated for 10 mins; assay type: physicochemical
[2] = Antioxidant activity assessed as inhibition of DPPH free radical scavenging activity incubated for 30 mins under dark condition; assay type: functional
[3] = Antioxidant activity assessed as clearing rate incubated for 5 mins in presence of pyrogallol by superoxide anion scavenging assay; assay type: functional
[4] = Antioxidant activity assessed as inhibition of superoxide anion scavenging activity incubated for 5 mins in presence of pyrogallol; assay type: functional
[5] = Inhibition of lipid peroxidation in egg yolk (unknown origin) preheated with compound and FeSO4 for 15 mins followed by TCA/TBA addition measured after 15 mins by absorbance based assay; assay type: functional, tissue-based
[6] = test system: L02; experiment: Anti-MASH activity in palmitate/oleate-stimulated human LO2 cells assessed as reduction in FASN mRNA level at 10 to 40 uM incubated for 24 hrs by q-PCR analysis; assay type: functional, cell-based; details: dose 10-40 µM
[7] = test system: L02; experiment: Anti-MASH activity in palmitate/oleate-stimulated human LO2 cells assessed as reduction in SCD mRNA level at 10 to 40 uM incubated for 24 hrs by q-PCR analysis; assay type: functional, cell-based; details: dose 10-40 µM
[8] = test system: Hepatocyte; experiment: Anti-MASH activity in palmitate/oleate-stimulated mouse primary hepatocytes assessed as reduction in triglyceride level; assay type: functional, cell-based
[9] = test system: L02; experiment: Anti-MASH activity in CCl4-stimulated human LO2 cells assessed as reduction in ROS level incubated for 24 hrs by DCFH-DA staining assay; assay type: functional, cell-based; details: dose 2.5-10 µM
[10] = test system: L02; experiment: Anti-MASH activity in CCl4-stimulated human LO2 cells assessed as increase in cell viability up to 10 uM incubated for 24 hrs by MTT assay; assay type: functional, cell-based
[11] = test system: Hepatocyte; experiment: Anti-MASH activity in CCl4-stimulated mouse primary hepatocytes assessed as reduction in ROS level at 2.5 to 10 uM by DCFH-DA staining assay; assay type: functional, cell-based; details: dose 2.5-10 µM
[12] = test system: Hepatocyte; experiment: Anti-inflammatory activity in CCl4-stimulated mouse primary hepatocytes assessed as reduction in IL-6 mRNA level at 1 uM; assay type: functional, cell-based
[13] = test system: LX-2; experiment: Anti-MASH activity in TGF-beta-activated-human LX2 cells assessed as reduction in collagen I level incubated for 48 hrs by Western blot analysis; assay type: functional, cell-based; details: dose 10-40 µM
[14] = test system: LX-2; experiment: Anti-MASH activity in TGF-beta-activated-human LX2 cells assessed as reduction in fibronectin level incubated for 48 hrs by Western blot analysis; assay type: functional, cell-based; details: dose 10-40 µM
[15] = Toxicity in male Sprague-Dawley rat model of CCl4-induced ALI assessed as body weight change at 100 mg/kg, IG qd pretreated with compound for 7 days followed by CCl4 administration after 2 hrs post-compound treatment measured after 16 hrs post-CCl4 injection; assay type: organism-based; details: in vivo, po, 186 h
[16] = Toxicity in male Sprague-Dawley rat model of CCl4-induced ALI assessed as animal growth at 100 mg/kg, IG qd pretreated with compound for 7 days followed by CCl4 administration after 2 hrs post-compound treatment measured after 16 hrs post-CCl4 injection; assay type: organism-based; details: in vivo, po, 186 h
[17] = test system: Rattus norvegicus; experiment: (§1) Hepatoprotective activity in male Sprague-Dawley rat model of CCl4-induced ALI assessed as reduction in yellowing of liver at 100 mg/kg, IG qd pretreated with compound for 7 days followed by CCl4 administration after 2 hrs post-compound treatment measured after 16 hrs post-CCl4 injection; assay type: functional, organism-based; details: time 186.0 hrs
[18] = test system: Rattus norvegicus; experiment: Hepatoprotective activity in male Sprague-Dawley rat model of CCl4-induced ALI assessed as reduction in white granular fat in liver at 100 mg/kg, IG qd pretreated with compound for 7 days followed by CCl4 administration after 2 hrs post-compound treatment measured after 16 hrs post-CCl4 injection; assay type: functional, organism-based; details: time 186.0 hrs
[19] = test system: Rattus norvegicus; experiment: Hepatoprotective activity in male Sprague-Dawley rat model of CCl4-induced ALI assessed as reduction in roughened surface in liver at 100 mg/kg, IG qd pretreated with compound for 7 days followed by CCl4 administration after 2 hrs post-compound treatment measured after 16 hrs post-CCl4 injection; assay type: functional, organism-based; details: time 186.0 hrs
[20] = test system: Rattus norvegicus; experiment: Hepatoprotective activity in male Sprague-Dawley rat model of CCl4-induced ALI assessed as restoration of serum AST level at 100 mg/kg, IG qd pretreated with compound for 7 days followed by CCl4 administration after 2 hrs post-compound treatment measured after 16 hrs post-CCl4 injection; assay type: functional, organism-based; details: time 186.0 hrs
[21] = test system: Rattus norvegicus; experiment: Hepatoprotective activity in male Sprague-Dawley rat model of CCl4-induced ALI assessed as restoration of serum ALT level at 100 mg/kg, IG qd pretreated with compound for 7 days followed by CCl4 administration after 2 hrs post-compound treatment measured after 16 hrs post-CCl4 injection; assay type: functional, organism-based; details: time 186.0 hrs
[22] = test system: Rattus norvegicus; experiment: as §1, with “vacuoles” for “yellowing of liver”, “injection by H and E staining based analysis” for “injection”; assay type: functional, organism-based; details: time 186.0 hrs
[23] = Toxicity in HFD-fed CCl4-treated male C57BL/6 mouse assessed as body weight loss at 150 mg/kg, po qd treated for 4 weeks; assay type: organism-based; details: in vivo, 672 h
[24] = test system: Mus musculus; experiment: Anti-MASH activity in HFD-fed CCl4-treated male C57BL/6 mouse assessed as reduction in fat accumulation in liver at 150 mg/kg, po qd treated for 4 weeks by Oil red O staining based analysis; assay type: functional, organism-based
[25] = AUC (0 to infinity) in overnight-fasted male Sprague-Dawley rat at 150 mg/kg, po measured up to 12 hrs by HPLC analysis; assay type: ADME, organism-based; details: in vivo
[26] = test system: Mus musculus; experiment: Anti-MASH activity in HFD-fed CCl4-treated male C57BL/6 mouse assessed as reduction in serum LDL cholesterol level at 150 mg/kg, po qd treated for 4 weeks; assay type: functional, organism-based
[27] = test system: Mus musculus; experiment: Anti-MASH activity in HFD-fed CCl4-treated male C57BL/6 mouse assessed as reduction in liver TNF-alpha level at 150 mg/kg, po qd treated for 4 weeks by ELISA; assay type: functional, organism-based
[28] = test system: Mus musculus; experiment: Anti-MASH activity in HFD-fed CCl4-treated male C57BL/6 mouse assessed as reduction in alpha-SMA in liver at 150 mg/kg, po qd treated for 4 weeks by IHC analysis; assay type: functional, organism-based
[29] = MRT (0 to infinity) in overnight-fasted male Sprague-Dawley rat at 150 mg/kg, po measured up to 12 hrs by HPLC analysis; assay type: ADME, organism-based; details: in vivo
[30] = Terminal half life in overnight-fasted male Sprague-Dawley rat at 150 mg/kg, po measured up to 12 hrs by HPLC analysis; assay type: ADME, organism-based; details: in vivo, read-out: beta t1/2 (converted)
[31] = Apparent volume of distribution during terminal phase in overnight-fasted male Sprague-Dawley rat at 150 mg/kg, po measured up to 12 hrs by HPLC analysis; assay type: ADME, organism-based; details: in vivo, read-out: Vz/F
[32] = Apparent clearance during terminal phase in overnight-fasted male Sprague-Dawley rat at 150 mg/kg, po measured up to 12 hrs by HPLC analysis; assay type: ADME, organism-based; details: in vivo, read-out: CLz/F (converted)
[33] = Acute toxicity in male KM mouse assessed as animal suvival at 2 g/kg, po administered as single dose measured after 2 weeks; assay type: organism-based; details: in vivo, 2000 mg/kg, 336 h
[34] = Acute toxicity in male KM mouse assessed as abnormalities in animal at 2 g/kg, po administered as single dose measured after 2 weeks; assay type: organism-based; details: in vivo, 2000 mg/kg, 336 h

## COc1cc([C@@H]2Oc3cc([C@H]4Oc5cc(O)cc(O)c5C(=O)[C@@H]4O)ccc3OC2CS)ccc1O (some centres undefined)
[1]
  solubility: > 1000 mg/mL
[2]
  IC50: 33.4 µM
[3]
  Activity: 82.9%
[4]
  IC50: 28.1 µM
[5]
  IC50: 41.7 µM
[6]
  Activity: Active
[7]
  Activity: Active
[8]
  Activity: Active
[9]
  Activity: Active
[10]
  Activity: Active
[11]
  Activity: Active
[12]
  Activity: Active
[13]
  Activity: Dose-dependent-effect
[14]
  Activity: Dose-dependent-effect
[15]
  Activity: Non-toxic
[16]
  Activity: Non-toxic
[17]
  Activity: Active
[18]
  Activity: Active
[19]
  Activity: Active
[20]
  Activity: Active
[21]
  Activity: Active
[22]
  Activity: Active
[23]
  Activity: Non-toxic
[24]
  Activity: Active
[25]
  AUC(0-inf): 11600 ng·h/mL
[26]
  Activity: Active
[27]
  Activity: Active
[28]
  Activity: Active
[29]
  MRT inf: 3.51 h
[30]
  half-life: 1.55 h
[31]
  Vd/F: 6.91 L
[32]
  CL/F: 51.3 mL/min
[33]
  Activity: Non-toxic
[34]
  Activity: Non-toxic
